Assay results: patent publication US20030004194A1, “Method for treating fibrotic diseases or other indications VI” (Alteon, Inc., priority 2001, published 2003)
Structures can show the parent of a compound that is named as a salt.

Assays:
[1] = Phase IIa clinical trial; format: in vivo, human
Description: When the heart pumps blood into the vascular system, the ability of the arteries to expand helps to push blood through the body. When arteries become stiff, as they do in the natural process of aging, the ability of the arteries to expand is diminished and also has consequences for the heart. The heart has to work harder to pump the blood into the stiff arteries, and eventually hypertrophies (enlarges in size) to accomplish this. A hypertrophied heart is an inefficient pump, and is one of the disorders that leads to congestive heart failure. […] The potential clinical benefit of this is to lessen the effort that the heart must expend to push blood throughout the body. The effect is also believed to contribute to preventing hypertrophy and subsequent inefficiency of the heart, which inefficiency would contribute to congestive heart failure.
Atherosclerosis is a disease that involves deposition of blood lipids in plaque in the arteries throughout the body. In coronary arteries, accumulation of plaque progressively leads to reduced coronary flow, with occlusion of the arteries causing focal death of cardiac tissue (myocardial infarction, heart attack). If the amount of tissue that dies is large enough, death ensures. […] Reducing local deposits of plaque should eventually lessen the risk of myocardial infarction and death due to heart attacks.
Pulse pressure is the difference between systolic and diastolic blood pressure. In a young human, systolic pressure is typically 120 mm Hg and diastolic pressure is 80 mm Hg, resulting in a pulse pressure of 40 mm Hg. With age, in many individuals pulse pressure increases, largely due to the increase in systolic pressure that results from stiff vessel disease. In individuals with pulse pressure greater than 60 mm Hg there is an increased risk of death from cardiovascular morbidities. […] This decrease in pulse pressure was believed to be due primarily to the effect of the agent on lowering the systolic blood pressure.

[2] = test system: Type IV collagen; experiment: In situ hybridization studies, Type IV collagen expression; format: in vivo
Description: (§1) Cardiovascular risk correlates more closely with the systolic and the pulse pressure than with the diastolic pressure. In diabetic patients, the cardiovascular risk profile of diabetic patients is strongly correlated to duration of diabetes, glycemic control and blood pressure. Structural matrix proteins contribute to the function of vessels and the heart, and changes in the physical behavior of cardiovascular walls are believed to be important determinants of circulatory function. In elderly individuals, the loss of compliance in the aorta leads to isolated systolic hypertension, which in turn expands the arterial wall and thereby diminishes the dynamic range of elasticity. Loss of compliance also results in the development of left ventricular hypertrophy.

[3] = In vivo studies of vascular stiffening; conditions: in vivo studies in rodents, canines and in primates
Description: as §1

[4] = test system: TGFbeta; experiment: In situ hybridization studies, TGFbeta expression; format: in vivo
Description: as §1

[5] = Dog model for diabetes, ventricular elasticity; format: in vivo
Description: as §1

[6] = test system: collagen in cardiovascular tissues; experiment: Mass of collagen in cardiovascular tissues after treatment; format: in vivo
Description: as §1

Cc1sc[n+](CC(=O)c2ccccc2)c1C [3-[2-phenyl-2-oxoethyl]-4,5-dimethyl-thiazolium salt]
stiffness of arteries, as measured by the ratio of stroke volume (ml) to pulse pressure (mm Hg) ([1]; Phase IIa clinical trial): showed an ability to reverse the stiffness of arteries | amount of circulating triglycerides (lipids) ([1]; Phase IIa trial): increased the amount of circulating triglycerides | pulse pressure ([1]; Phase IIa trial, elderly patients with pulse pressures greater than 60 mm Hg, statistically significant): reduced pulse pressure | expression of Type IV collagen [2]: reduces the expression | vascular stiffening [3]: substantially ameliorating vascular stiffening | expression of TGFbeta [4]: reduces the expression | end diastolic pressure (indicator of ventricular elasticity) [5]: returned to a value at about the mid-point between the disease impaired value and the value for control dogs | end diastolic volume (indicator of ventricular elasticity) [5]: returned to a value at about the mid-point between the disease impaired value and the value for control dogs | mass of collagen in cardiovascular tissues [6]: reduction in the mass of collagen
